What all share (assay): inhibition of bacterial growth, MIC (agar)
Assay type in all cases: cell-based

In one assay the test system is Bacillus subtilis A. Conditions: read-out: concentration required to inhibit growth (MIC).
A further assay relates to Citrobacter freundii E8. Conditions: read-out: concentration required to inhibit growth (MIC).
For the next assay, the system named is Klebsiella aerogenes A. Conditions: read-out: concentration required to inhibit growth (MIC).
The next assay relates to Shigella sonnei MB 11967. Conditions: MB11967, read-out: concentration required to inhibit growth (MIC).
Another assay relates to Staph. aureus Russell. Conditions: Staphylococcus aureus, read-out: concentration required to inhibit growth (MIC).
A further assay relates to Staph. aureus 1517. The settings on record: Staphylococcus aureus, read-out: concentration required to inhibit growth (MIC).
The next assay relates to Staph. aureus Oxford. The settings on record: Staphylococcus aureus, read-out: concentration required to inhibit growth (MIC).
Another assay relates to Enterobacter cloacae N1. Conditions: read-out: concentration required to inhibit growth (MIC).
A further assay has as its system Serratia marcescens US20. The settings on record: read-out: concentration required to inhibit growth (MIC).
The next assay has as its system E. coli 0111. The settings on record: Escherichia coli, read-out: concentration required to inhibit growth (MIC).
The test system of another assay is Proteus mirabilis C977. Conditions: read-out: concentration required to inhibit growth (MIC).
For assay [1], the system named is Salmonella typhimurium CT10. The settings on record: Salmonella enterica, read-out: concentration required to inhibit growth (MIC).
The test system of a further assay is Proteus morganii I 580. The settings on record: Morganella morganii, I580, read-out: concentration required to inhibit growth (MIC).
Another assay concerns Proteus rettgeri WM16. The settings on record: Providencia rettgeri, read-out: concentration required to inhibit growth (MIC).
In the next assay the test system is Salmonella typhimurium. Conditions: Salmonella enterica, Salmonella typhimurium (strain not given), read-out: concentration required to inhibit growth (MIC).
The next assay has as its system Strep pyogenes CN10. The settings on record: Streptococcus pyogenes, Staph. pyogenes CN 10 (so in the source), read-out: concentration required to inhibit growth (MIC).

In brackets after ≈: the same amount, converted by molar mass.

The record followed here is patent US4405637A, “β-Lactam antibacterial agents” (Beecham Group Limited, priority 1977, dated 1983).

In the case of `N#C/C=C/C[C@@H]1C(=O)N2C(C(=O)OCc3ccccc3)=CC[C@H]12` (relative stereo) [Compound 56, Benzyl 6-(3-cyano-2-propen-1-yl)-7-oxo-1-azabicyclo[3,2,0]hept-2-ene-2-carboxylat], the MIC in the assay with Bacillus subtilis A is 20 µg/mL (≈ 64.9 µM); with Citrobacter freundii E8, 20 µg/mL (≈ 64.9 µM); with Klebsiella aerogenes A it was 20 µg/mL (≈ 64.9 µM); with Shigella sonnei MB 11967 it was 20 µg/mL (≈ 64.9 µM); in the assay on Staph. aureus Russell, ≤ 2 µg/mL; with Staph. aureus 1517, ≤ 2 µg/mL. The MIC with Staph. aureus Oxford is ≤ 2 µg/mL; with Enterobacter cloacae N1, 20 µg/mL (≈ 64.9 µM); in the assay with Serratia marcescens US20, 20 µg/mL (≈ 64.9 µM); with E. coli 0111 it was 20 µg/mL (≈ 64.9 µM); in the assay on Proteus mirabilis C977, 20 µg/mL (≈ 64.9 µM); in assay [1], 20 µg/mL (≈ 64.9 µM). Also, the MIC in the assay on Proteus morganii I 580 and in the assay with Proteus rettgeri WM16 was 20 µg/mL (≈ 64.9 µM) in each case.

For the compound `N#C/C=C/C[C@@H]1C(=O)N2C(C(=O)OC3OC(=O)c4ccccc43)=CC[C@H]12` (relative stereo) [Compound 61, Phthalidyl 6-(3-cyano-2-propen-1-yl)-7-oxo-1-azabicyclo[3.2.0]hept-2-ene-2-carboxylat], the MIC in the assay with Salmonella typhimurium is 7 µg/mL (≈ 20 µM).

As for `COC(=O)/C=C/C[C@@H]1C(=O)N2C(C(=O)OC3OC(=O)c4ccccc43)=CC[C@H]12` (relative stereo) [Compound 41, Phthalidyl 6-(3-methoxycarbonyl-2-propen-1-yl)-7-oxo-1-azabicyclo[3,2,0]hept-2-ene-2-carboxylate], the MIC in the assay with Klebsiella aerogenes A was 50 µg/mL (≈ 130 µM); with Shigella sonnei MB 11967, 50 µg/mL (≈ 130 µM); with Staph. aureus Russell, ≤ 0.8 µg/mL; in the assay with Staph. aureus 1517 it was ≤ 0.8 µg/mL; in the assay with Staph. aureus Oxford, ≤ 0.8 µg/mL; in the assay with Strep pyogenes CN10 it was ≤ 0.8 µg/mL. For the same compound, the MIC amounted to 50 µg/mL (≈ 130 µM) in the assay on E. coli 0111, 100 µg/mL (≈ 261 µM) in the assay with Proteus mirabilis C977 and 50 µg/mL (≈ 130 µM) in assay [1].

Turning to `CC(C)(O)[C@@H]1C(=O)N2C(C(=O)OCc3ccccc3)=CC[C@H]12` (relative stereo) [Example 4 cis-isomer, Benzyl 6-(2-hydroxy-2-propyl)-7-oxo-1-azabicyclo[3,2,0]hept-2-ene-2-carboxylate], the MIC with Klebsiella aerogenes A was ≤ 2 µg/mL; with Shigella sonnei MB 11967 it was ≤ 2 µg/mL; in the assay with Staph. aureus Russell, ≤ 2 µg/mL; in the assay with Staph. aureus Oxford, ≤ 2 µg/mL; in the assay on Enterobacter cloacae N1, 20 µg/mL (≈ 66.4 µM); in the assay with Serratia marcescens US20, 20 µg/mL (≈ 66.4 µM).
